Like-named read-outs stand apart in the source and are kept apart here. Where a SMILES comes first, the peptide text is derived from it.

For assay [1], the target named is T1, ACE (EC 3.4.15.1) purified from the rabbit lungs (Oryctolagus cuniculus, UniProt P12822).
T1 construct: ACE (EC 3.4.15.1) purified from the rabbit lungs; purchased Sigma-Aldrich Japan K.K; host or cells: rabbit lung (tissue-purified)
T1 sequence (P12822 34-1310): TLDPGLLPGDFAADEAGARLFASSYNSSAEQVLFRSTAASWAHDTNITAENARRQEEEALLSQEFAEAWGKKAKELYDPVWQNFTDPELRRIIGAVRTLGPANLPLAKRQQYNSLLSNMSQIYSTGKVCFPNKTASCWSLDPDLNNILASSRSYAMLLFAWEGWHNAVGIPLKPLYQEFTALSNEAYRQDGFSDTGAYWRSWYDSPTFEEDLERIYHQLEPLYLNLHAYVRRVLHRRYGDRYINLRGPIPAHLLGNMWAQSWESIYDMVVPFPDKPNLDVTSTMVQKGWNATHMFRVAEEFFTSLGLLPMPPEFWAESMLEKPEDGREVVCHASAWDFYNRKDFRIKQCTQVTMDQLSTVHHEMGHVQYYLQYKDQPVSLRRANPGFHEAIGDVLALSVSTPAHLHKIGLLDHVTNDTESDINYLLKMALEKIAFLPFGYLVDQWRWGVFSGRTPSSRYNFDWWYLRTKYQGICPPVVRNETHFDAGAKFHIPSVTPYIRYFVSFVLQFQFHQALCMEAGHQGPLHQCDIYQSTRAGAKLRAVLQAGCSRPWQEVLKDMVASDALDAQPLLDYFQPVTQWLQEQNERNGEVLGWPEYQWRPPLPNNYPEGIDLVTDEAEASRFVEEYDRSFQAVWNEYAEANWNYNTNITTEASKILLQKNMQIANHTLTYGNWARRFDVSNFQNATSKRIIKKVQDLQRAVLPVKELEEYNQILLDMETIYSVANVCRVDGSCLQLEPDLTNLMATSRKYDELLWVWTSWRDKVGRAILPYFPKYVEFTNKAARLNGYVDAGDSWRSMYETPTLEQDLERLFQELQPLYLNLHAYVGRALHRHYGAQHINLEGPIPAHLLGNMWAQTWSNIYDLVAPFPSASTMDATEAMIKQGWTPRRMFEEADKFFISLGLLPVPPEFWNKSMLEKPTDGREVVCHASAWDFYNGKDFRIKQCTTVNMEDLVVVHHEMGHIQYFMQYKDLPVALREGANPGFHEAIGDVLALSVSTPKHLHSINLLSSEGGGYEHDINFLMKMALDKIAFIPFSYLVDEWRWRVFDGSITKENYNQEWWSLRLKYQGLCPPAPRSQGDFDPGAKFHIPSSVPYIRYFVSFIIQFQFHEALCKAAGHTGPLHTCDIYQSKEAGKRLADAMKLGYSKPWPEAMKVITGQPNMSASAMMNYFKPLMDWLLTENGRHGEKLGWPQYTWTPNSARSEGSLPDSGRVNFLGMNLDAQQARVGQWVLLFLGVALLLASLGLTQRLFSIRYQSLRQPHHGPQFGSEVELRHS
In words: biochemical. The source says: ACE (EC 3.4.15.1) purified from the rabbit lungs was obtained from Sigma-Aldrich Japan K.K. (Tokyo, Japan). Hippuryl-L-histidyl-L-leucine (Hip-His-Leu) was obtained from the Peptide Institute (Osaka, Japan). Ammonium formate, borate, diethyl ether, ethyl acetate, formate, hydrochloric acid (HCl), HPLC-grade acetonitrile, sodium chloride (NaCl), potassium chloride (KCl), potassium dihydrogen phosphate (KH2PO4), magnesium acetate (Mg(CH3COO)2), magnesium sulfate (MgSO4), Nonidet P-40, sodium hydrogen carbonate (NaHCO3), sucrose, and tris(hydroxymethyl)aminomethane were purchased from Kanto Chemical Co., Inc. (Tokyo, Japan). Trifluoroacetic acid (TFA) was purchased from Watanabe Chemical Industries, Ltd. (Hiroshima, Japan).
The in vitro ACE inhibition assay was performed using the method described previously. […] Then, 100 µL of commercial ACE (6.0 mU) was added, and the mixture was incubated at 37°C for 30 min. The reaction was stopped by 250 µL of 1.0 N HCl. Released hippuric acid (Hip) was extracted with 1.0 mL ethyl acetate and quantified by HPLC according to our previous report.

Assay [2] addresses T2, Ang II-mediated vasoconstriction (Rattus norvegicus, UniProt P47820).
T2 sequence (P47820 36-1313): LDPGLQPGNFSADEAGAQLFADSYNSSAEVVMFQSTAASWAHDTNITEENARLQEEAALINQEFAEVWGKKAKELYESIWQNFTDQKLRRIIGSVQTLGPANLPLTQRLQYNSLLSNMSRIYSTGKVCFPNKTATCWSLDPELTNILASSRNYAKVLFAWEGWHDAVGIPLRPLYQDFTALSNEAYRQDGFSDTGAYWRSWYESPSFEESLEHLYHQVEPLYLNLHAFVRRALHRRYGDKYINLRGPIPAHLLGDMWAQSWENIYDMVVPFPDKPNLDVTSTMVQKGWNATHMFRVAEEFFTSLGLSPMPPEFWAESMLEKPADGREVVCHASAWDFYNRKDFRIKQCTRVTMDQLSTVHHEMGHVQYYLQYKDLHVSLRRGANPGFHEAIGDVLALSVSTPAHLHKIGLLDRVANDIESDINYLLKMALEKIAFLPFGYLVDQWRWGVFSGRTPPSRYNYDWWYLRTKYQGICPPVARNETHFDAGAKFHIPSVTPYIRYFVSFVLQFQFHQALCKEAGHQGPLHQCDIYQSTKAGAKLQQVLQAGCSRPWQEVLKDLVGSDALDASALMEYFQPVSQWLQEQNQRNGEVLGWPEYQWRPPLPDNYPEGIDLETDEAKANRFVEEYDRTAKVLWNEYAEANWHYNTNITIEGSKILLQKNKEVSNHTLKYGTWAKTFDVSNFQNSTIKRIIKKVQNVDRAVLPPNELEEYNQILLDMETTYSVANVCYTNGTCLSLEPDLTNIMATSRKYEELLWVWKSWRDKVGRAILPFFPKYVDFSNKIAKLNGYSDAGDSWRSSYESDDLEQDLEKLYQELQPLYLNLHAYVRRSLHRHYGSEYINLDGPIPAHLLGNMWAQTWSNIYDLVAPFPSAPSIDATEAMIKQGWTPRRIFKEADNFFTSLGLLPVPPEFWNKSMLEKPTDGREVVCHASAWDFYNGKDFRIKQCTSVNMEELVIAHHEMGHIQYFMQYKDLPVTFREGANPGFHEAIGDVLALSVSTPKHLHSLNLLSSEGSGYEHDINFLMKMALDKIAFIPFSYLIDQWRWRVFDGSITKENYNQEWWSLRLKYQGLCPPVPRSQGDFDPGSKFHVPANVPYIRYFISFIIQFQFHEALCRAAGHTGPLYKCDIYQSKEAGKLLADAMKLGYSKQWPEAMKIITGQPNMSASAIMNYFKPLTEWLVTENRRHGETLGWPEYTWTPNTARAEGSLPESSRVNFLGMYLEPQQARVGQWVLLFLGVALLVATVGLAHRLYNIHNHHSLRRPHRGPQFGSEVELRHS
In words: Ex vivo ACE inhibition assay: Ang II-mediated vasoconstriction of endothelium-denuded thoracic aorta rings. Further details: species or system spontaneously hypertensive rats (SHRs). The conditions noted are these: 0.2 µM Ang I, read-out: EC50 of suppression of Ang II-mediated vasoconstriction.

For assay [3], the target named is T3, ACE in thoracic aorta tissue (Rattus norvegicus, UniProt P47820).
T3 sequence (P47820 36-1313): T2 sequence (P47820 36-1313)
The assay is described as follows: Ex vivo ACE inhibition assay: Ang II production in endothelium-denuded thoracic aorta rings (UPLC-MS).
Procedure: Isolation of the thoracic aorta from SHRs (n = 12) and preparation of endothelium-denuded aortic rings was performed as described above. Endothelium was removed to eliminate the influence of endothelium-derived vasodilators.
After 30 min incubation, 1.0 mL of 0.20 µM Ang I was added and the aortic tension was recorded. When vasoconstriction plateaued, Krebs solution in the organ bath was transferred to a test tube and heated at 90°C for 5 min to stop the enzyme reaction; the heat-treated samples were dried under vacuum and frozen at −80°C until UPLC-MS analysis. The aorta rings were used in the BCA assay to express Ang II production as pmol/mg-protein.
Vacuum-dried samples were dissolved in 500 µL acetonitrile/4.0 mM ammonium formate (5∶95 v/v) with 4.0 mM formic acid prior to UPLC-MS analysis, performed at the CREFAS (Collaborated Research Center for Food Functions, Faculty of Agriculture, Shinshu University); Quattro micro API (MS) with an ACQUITY UPLC (Waters Co., USA) was used. Separation was conducted at 35°C using a CHEMCOBOND 5-ODS-W reversed-phase column (4.6×150 mm; ChemcoPlus Scientific Co., Ltd. Kyoto, Japan). […] Mass spectra were acquired in electrospray ionization (ESI) mode using 3500 V capillary voltage, 30 V cone voltage, 350 L/h N2 gas flow (desolvation), 50 L/h N2 gas flow (cone), 100°C source temperature, and 350°C desolvation temperature. […] For each sample, measurements were performed in triplicate; the results were expressed as the mean ± S.E.

In a further assay the test system is ACE. Further details: method as in PMID 7673515. The settings on record: ref [7], [8]; read-out: in vitro ACE-inhibitory activity IC50; cited from earlier work.
For assay [4], the system named is systolic and diastolic blood pressure. The settings on record: SHRs; ref [8]; cited from earlier work.
The mark [5] stands for this setting: Hip-His-Leu substrate, mean ± S.E., n = 3, read-out: In vitro ACE-inhibitory activity IC50.

Turning to `C[C@@H](O)[C@H](NC(=O)[C@@H](N)Cc1c[nH]c2ccccc12)C(=O)N[C@@H](Cc1ccccc1)C(=O)N[C@@H](CCCNC(=N)N)C(=O)O` [WTFR] (H-WTFR-OH), the results for the IC50 in assay [1] and in assay [3] were 6700 ± 500 µM and 5.64 µM, respectively. The EC50 (usually the midpoint of the concentration-response curve) in assay [2] is 36.8 µM. For the same molecule, in assay [3] (at 10 µM, endothelium-denuded rings, 0.2 µM Ang I), the “reduction of Ang II production” value is 59%.

`C[C@H](NC(=O)[C@H](CC(=O)O)NC(=O)[C@@H](N)Cc1ccccc1)C(=O)N[C@@H](CCCNC(=N)N)C(=O)N[C@H](C(=O)O)[C@@H](C)O` [FDART] (H-FDART-OH): the IC50 (usually the concentration that gives 50% inhibition) in assay [1] came to 1900 ± 100 µM; in assay [3], 41.7 µM. Moreover, in assay [2], the EC50 was 53.6 µM.

For `NC(=O)CC[C@H](NC(=O)[C@@H](N)Cc1ccccc1)C(=O)O` [FQ], the IC50 came out at 7400 ± 600 µM in assay [1] (setting [5]) and 90.9 µM in assay [3]. Also, the EC50 in assay [2] was 85.1 µM.

Take `CC(C)[C@H](N)C(=O)N[C@@H](C)C(=O)N[C@@H](CCC(=O)O)C(=O)O` [VAE] (H-Val-Ala-Glu-OH): in assay [1] (setting [5]), the half-maximal inhibitory concentration (IC50) amounted to 55900 ± 1900 µM.

`CC(C)[C@H](N)C(=O)N[C@H](C(=O)NCC(=O)O)C(C)C` [VVG] (H-Val-Val-Gly-OH): the IC50 in assay [1] (setting [5]) worked out at 39600 ± 5700 µM.

As to `CC(C)[C@H](NC(=O)[C@@H](N)CC(=O)O)C(=O)N[C@@H](Cc1c[nH]c2ccccc12)C(=O)N[C@@H](Cc1ccc(O)cc1)C(=O)O` [DVWY] (H-DVWY-OH), the IC50 in assay [1] was 690 ± 40 µM; in assay [3] it was 70.5 µM. Moreover, the EC50 in assay [2] is 68.2 µM.

In the case of Val-Tyr [VY], the IC50 in the assay on ACE is 26 µM. In addition, the “minimum effective BPL dose” value in assay [4] is reported as 1.0 mg/kg.

(Values after publication PMC4164440, “Blood Pressure-Lowering Peptides from Neo-Fermented Buckwheat Sprouts: A New Approach to Estimating ACE-Inhibitory Activity” (PLoS ONE, 2014).)
